Results published in ChEMBL document CHEMBL6109041, “Docking and structure activity relationship studies of potent and selective thiazolidinethione GSK-3 inhibitors” (Bioorg Med Chem Lett, 2025).
pIC50: −log10 of the molar value.

Legend:
[1] = target: T1, Glycogen synthase kinase-3 alpha (Homo sapiens, UniProt P49840); assay: Inhibition of GSK3alpha (unknown origin)
Target sequence in this assay (P49840 whole entry): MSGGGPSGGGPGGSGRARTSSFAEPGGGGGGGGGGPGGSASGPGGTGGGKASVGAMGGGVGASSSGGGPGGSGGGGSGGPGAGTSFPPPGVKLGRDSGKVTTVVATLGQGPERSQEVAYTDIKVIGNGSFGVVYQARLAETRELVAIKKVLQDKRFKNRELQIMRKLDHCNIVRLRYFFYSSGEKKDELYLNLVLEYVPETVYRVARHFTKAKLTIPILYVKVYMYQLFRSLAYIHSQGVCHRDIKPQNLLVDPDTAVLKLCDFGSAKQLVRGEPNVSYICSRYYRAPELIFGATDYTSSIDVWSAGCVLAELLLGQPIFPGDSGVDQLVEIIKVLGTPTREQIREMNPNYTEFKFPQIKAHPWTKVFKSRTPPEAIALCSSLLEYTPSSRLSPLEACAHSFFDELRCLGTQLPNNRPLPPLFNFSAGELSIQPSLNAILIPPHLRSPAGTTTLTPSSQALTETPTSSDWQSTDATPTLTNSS

[2] = target: T2, Glycogen synthase kinase-3 beta (Homo sapiens, UniProt P49841); assay: Inhibition of GSK3beta (unknown origin)
Target sequence in this assay (P49841 whole entry): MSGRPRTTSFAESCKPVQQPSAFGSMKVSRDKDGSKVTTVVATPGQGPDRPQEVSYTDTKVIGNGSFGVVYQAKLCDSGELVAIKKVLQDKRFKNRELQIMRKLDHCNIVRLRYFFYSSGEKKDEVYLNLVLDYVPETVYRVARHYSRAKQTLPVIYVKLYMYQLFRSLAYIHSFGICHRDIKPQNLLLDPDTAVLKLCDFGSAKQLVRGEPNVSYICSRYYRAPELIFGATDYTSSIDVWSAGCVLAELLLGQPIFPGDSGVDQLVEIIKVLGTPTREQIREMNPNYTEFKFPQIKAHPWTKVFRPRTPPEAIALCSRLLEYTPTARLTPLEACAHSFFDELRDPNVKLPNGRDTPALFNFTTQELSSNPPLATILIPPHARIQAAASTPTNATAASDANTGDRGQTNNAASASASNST

[3] = target: T1, Glycogen synthase kinase-3 alpha; assay: Inhibition of GSK3alpha (unknown origin) at 2 uM relative to control
Target sequence in this assay (P49840 2-483 limits assumed): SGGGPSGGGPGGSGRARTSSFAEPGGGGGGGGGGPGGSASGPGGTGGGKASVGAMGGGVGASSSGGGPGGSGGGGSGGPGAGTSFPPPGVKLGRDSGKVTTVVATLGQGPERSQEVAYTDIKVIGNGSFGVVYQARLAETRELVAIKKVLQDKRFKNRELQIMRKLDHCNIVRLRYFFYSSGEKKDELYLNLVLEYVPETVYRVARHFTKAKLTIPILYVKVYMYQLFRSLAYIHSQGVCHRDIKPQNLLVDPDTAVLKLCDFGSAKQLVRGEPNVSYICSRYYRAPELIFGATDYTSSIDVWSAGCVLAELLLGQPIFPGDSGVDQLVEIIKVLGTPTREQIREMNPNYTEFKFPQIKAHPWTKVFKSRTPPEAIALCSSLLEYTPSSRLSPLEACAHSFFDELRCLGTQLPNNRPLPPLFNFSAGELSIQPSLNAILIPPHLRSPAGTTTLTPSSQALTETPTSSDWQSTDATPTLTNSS

[4] = target: T2, Glycogen synthase kinase-3 beta; assay: Inhibition of GSK3beta (unknown origin) at 2 uM relative to control
Target sequence in this assay (P49841 whole entry, looked up): as the sequence (P49841 whole entry) above

pIC50 [1] | pIC50 [2] | inhibition [3] [%] | inhibition [4] [%] | SMILES
< 5.00 | < 5.00 | – | – | OC1(c2ccccc2)CSC(=S)N1Cc1ccccc1 (stereo not drawn)
7.74 | 7.91 | > 90 | > 90 | OC1(c2ccccc2)CSC(=S)N1Cc1ccncc1 (stereo not drawn)
< 5.00 | < 5.00 | – | – | OC1(c2ccccc2)CSC(=S)N1Cc1ccccn1 (stereo not drawn)
